The record followed here is US8343696B2, “Colored curable composition, fluorine-containing dipyrromethene compound and tautomer thereof, and fluorine-containing dipyrromethene metal complex and tautomer thereof, and color filter using the same and method for producing the color filter” (FUJIFILM Corporation, priority 2008, dated 2013).

Holding throughout (format): physicochemical
Data set [1] can be described thus: Light-fastness of coating film (color difference ΔEab before and after xenon lamp irradiation). Particulars: xenon lamp 20,000 luxes for 10 hours (200,000 lux·h). As to the method:
A glass substrate having undercoat layer formed by applying the colored resin composition obtained in section 3 above was irradiated with a xenon lamp at an intensity of 20,000 luxes for 10 hours (equivalent to 200,000 lux·h), and the color difference ΔEab between before and after the irradiation was determined. The light-fastness was evaluated according to the following criteria. A smaller ΔEab value indicates better light-fastness.
(§1) A: ΔEab value was less than 6
(§2) B: ΔEab value was from 6 to 10
(§3) C: ΔEab value was more than 10

The nature of data set [2]: Transmittance at 450 nm of the color filter. Particulars: negative-working colored resist, 1.0 μm film; transmittance at λmax normalized to 2%. Here is the method: The colored resist solution obtained in section 3 above was applied to an undercoat layer side of the glass substrate having an undercoat layer obtained in section 2 above by a spin coater such that a film thickness was 1.0 μm. Subsequently, the film was pre-baked at 100° C. for 120 sec, whereby a monochromatic color filter was obtained.
The transmission spectrum of the color filter obtained above was measured, and the transmittance at 450 nm was evaluated according to the following criteria. The transmittance of the color filter at 450 nm was evaluated by correcting (normalizing) the transmittance at the maximum absorption wavelength of the colorant included in the color filter to 2%. A larger transmittance indicates greater transmission of blue light, which indicates favorable magenta or violet color that can be used in a blue filter.
A: Transmittance at 450 nm was 90% or more
B: Transmittance at 450 nm was 80% or more but not more than 90%
C: Transmittance at 450 nm was not more than 80%

Data set [3] can be described thus: Storage stability of colored resist solution (precipitation after one month at room temperature). The arrangement: key: A: No precipitation was observed; B: Slight precipitation was observed; C: Precipitation was observed. As to conditions: negative-working colored resist solution, visual precipitation. From the text:
9.4 g of the resist solution obtained in section 1 above and 0.35 g of the exemplary compound Ia-12 synthesized above (a compound represented by Formula (4): dipyrromethene complex compound) were mixed and dissolved, whereby a colored resist solution (a negative-working ultraviolet-sensitive colored curable composition) was obtained.
The colored resist solution was stored for one month at room temperature, and then degree of precipitation was visually observed. The storage stability was evaluated according to the following criteria.
A: No precipitation was observed
B: Slight precipitation was observed
C: Precipitation was observed

The nature of data set [4]: Absorption spectrum in ethyl acetate solution (spectrophotometer UV-2400PC). Here is the method:
In consideration of film thickness, the molar absorption coefficient of the specific metal complex compounds-1, -2, -3 and -4 of the invention is preferably as high as possible, and 60,000 or higher is preferable. The maximum absorption wavelength (λmax) thereof is preferably from 520 nm to 580 nm, and more preferably from 530 nm to 570 nm, in order to improve color purity. The maximum absorption wavelength and the molar absorption coefficient are determined by using a spectrophotometer UV-2400PC (manufactured by Shimadzu Corporation).
The molar absorption coefficient (ε) of each of the obtained compounds was measured in an ethyl acetate solution using a spectrophotometer (trade name: UV-2400PC; manufactured by Shimadzu Corporation). The absorbance (Abs) at 450 nm was evaluated by normalizing the absorbance at a maximum absorption wavelength (λmax) to 1.0. […] The measurement results of the absorbance (Abs value), maximum absorption wavelength (λmax), and molar absorption coefficient (ε) are shown in Table 1.
By the method similar to the reaction scheme in Synthesis Example 1 above, the exemplary compounds (dipyrromethene metal complex compounds or tautomers thereof) shown in Table 1 were synthesized. The identification of the compounds and the measurement of the maximum absorption wavelength (λmax) and the molar absorption coefficient (ε) of the compounds were performed similarly to Synthesis Example 1 above.

A short description of data set [5]: Heat resistance of coating film (color difference ΔEab before and after heating). Particulars: 100° C. for 1 hour on hot plate. As to the method: A glass substrate having undercoat layer formed by applying the colored resin composition obtained in section 3 above was heat-treated at 100° C. for 1 hour using a hot plate, and the color difference (ΔEab) between before and after the heating was determined by using a […] MCPD-1000 (trade name, manufactured by Otsuka Electronics Co., Ltd.). The heat resistance was evaluated according to the following criteria. A smaller AEab value indicates better heat resistance.
as §1, §2, §3

`CC1CC(C(C)(C)C)C(OC(=O)c2c(-c3ccccc3)c3[n](c2NC(=O)c2cccc(C(F)(F)F)c2)[Zn-]([OH])[N+]2=C(NC(=O)C(C)SCCCS(=O)(=O)[O-])C(C#N)=C(c4ccccc4)C2=C3)C(C(C)(C)C)C1.[Na+]` (stereo not shown) [Ib-20]: in data set [1], the Light-fastness result is “B (ΔEab value was from 6 to 10)”. Moreover, the “Transmittance at 450 nm” value in data set [2] was “A (Transmittance at 450 nm was 90% or more)”. The Storage stability result in data set [3] is on record as “A”. Besides, in data set [4], the “maximum absorption wavelength (λmax)” value is 563 nm, the “molar absorption coefficient (ε)” value is reported as 88,700 and the “Abs value at 450 nm when normalized to Abs = 1.0 at λmax” value (shortened to “Abs value at 450 nm when normalized”) amounted to 0.0142. Further, the Heat resistance entry in data set [5] is listed as “B (ΔEab value was from 6 to 10)”.

Consider `CC1CC(C(C)(C)C)C(OC(=O)c2c(-c3ccccc3)c3[n](c2NC(=O)c2cccc(C(F)(F)F)c2)[Zn-]([OH])[N+]2=C(NC(=O)C(C)Sc4cc(C(=O)O)cc(C(=O)O)c4)C(C#N)=C(c4ccccc4)C2=C3)C(C(C)(C)C)C1` (stereo not shown) [Ib-15], for which, in data set [1], the Light-fastness entry is reported as “A (ΔEab value was less than 6)”. Besides, in data set [2], the “Transmittance at 450 nm” value is on record as “A (Transmittance at 450 nm was 90% or more)”. The Storage stability entry in data set [3] is “A”. In addition, in data set [4], the “maximum absorption wavelength (λmax)” value was 562 nm, the “molar absorption coefficient (ε)” value is given as 87,100 and the “Abs value at 450 nm when normalized” value is recorded as 0.0089. The Heat resistance entry in data set [5] is on record as “A (ΔEab value was less than 6)”.

Consider `CC1=C(C(=O)OC2C(C(C)(C)C)CC(C)CC2C(C)(C)C)C(NC(=O)c2cccc(C(F)(F)F)c2)=[N+]2C1=Cc1c(C)c(C(=O)OC3C(C(C)(C)C)CC(C)CC3C(C)(C)C)c(NC(=O)c3cccc(C(F)(F)F)c3)[n]1[Zn-]2[OH]` (stereo not shown) [IIa-6], for which, in data set [1], the Light-fastness entry was “A (ΔEab value was less than 6)”. Moreover, the “Transmittance at 450 nm” value in data set [2] is recorded as “A (Transmittance at 450 nm was 90% or more)”. For the same molecule, in data set [3], the Storage stability result is listed as “A”. Besides, in data set [4], the “maximum absorption wavelength (λmax)” value is recorded as 552 nm, the “molar absorption coefficient (ε)” value was 106,300 and the “Abs value at 450 nm when normalized” value stood at 0.0127. In addition, the Heat resistance result in data set [5] is “A (ΔEab value was less than 6)”.

Consider `CC1=C(C(=O)OC2C(C(C)(C)C)CC(C)CC2C(C)(C)C)C(NC(=O)c2ccc(F)c(F)c2)=[N+]2C1=Cc1c(C)c(C(=O)OC3C(C(C)(C)C)CC(C)CC3C(C)(C)C)c(NC(=O)c3ccc(F)c(F)c3)[n]1[Zn-]2[OH]` (stereo not shown) [IIa-13], for which the Light-fastness result in data set [1] is “A (ΔEab value was less than 6)”. Moreover, in data set [2], the “Transmittance at 450 nm” value is recorded as “A (Transmittance at 450 nm was 90% or more)”. Further, the Storage stability entry in data set [3] is given as “A”. In addition, in data set [4], the “maximum absorption wavelength (λmax)” value was found to be 550 nm, the “molar absorption coefficient (ε)” value is listed as 121,300 and the “Abs value at 450 nm when normalized” value was found to be 0.0084. The Heat resistance result in data set [5] is listed as “A (ΔEab value was less than 6)”.

For the molecule `CC1=C(C(=O)OC2C(C(C)(C)C)CC(C)CC2C(C)(C)C)C(NC(=O)c2ccc(C(F)(F)F)cc2)=[N+]2C1=Cc1c(C)c(C(=O)OC3C(C(C)(C)C)CC(C)CC3C(C)(C)C)c(NC(=O)c3ccc(C(F)(F)F)cc3)[n]1[Zn-]2[OH]` (stereo not shown) [IIa-7], the Light-fastness entry in data set [1] was “A (ΔEab value was less than 6)”. Further, in data set [2], the “Transmittance at 450 nm” value was “A (Transmittance at 450 nm was 90% or more)”. Further, the Storage stability result in data set [3] is given as “A”. Besides, in data set [4], the “maximum absorption wavelength (λmax)” value was determined as 554 nm, the “molar absorption coefficient (ε)” value is on record as 111,800 and the “Abs value at 450 nm when normalized” value is listed as 0.0089. Also, the Heat resistance result in data set [5] was “A (ΔEab value was less than 6)”.

As for `CC1CC(C(C)(C)C)C(OC(=O)c2c(-c3ccccc3)c(C=C3N=C(NC(=O)CCCSc4cc(C(=O)O)cc(C(=O)O)c4)C(C#N)=C3c3ccccc3)[n]([Zn][OH])c2NC(=O)c2cc(F)cc(F)c2F)C(C(C)(C)C)C1` (stereo not shown) [Ib-59], in data set [1], the Light-fastness entry is “A (ΔEab value was less than 6)”. The “Transmittance at 450 nm” value in data set [2] is “A (Transmittance at 450 nm was 90% or more)”. In data set [3], the Storage stability entry is reported as “A”. Moreover, in data set [4], the “maximum absorption wavelength (λmax)” value is 559 nm, the “molar absorption coefficient (ε)” value is on record as 93,900 and the “Abs value at 450 nm when normalized” value was 0.0083. In addition, the Heat resistance entry in data set [5] was “A (ΔEab value was less than 6)”.

For `CC1CC(C(C)(C)C)C(OC(=O)c2c(-c3ccccc3)c3[n](c2NC(=O)c2cc(F)ccc2NS(C)(=O)=O)[Zn-]([OH])[N+]2=C(NC(=O)C(C)Sc4cc(C(=O)O)cc(C(=O)O)c4)C(C#N)=C(c4ccccc4)C2=C3)C(C(C)(C)C)C1` (stereo not shown) [Ib-49], in data set [1], the Light-fastness entry is “A (ΔEab value was less than 6)”. For the same molecule, the “Transmittance at 450 nm” value in data set [2] is recorded as “A (Transmittance at 450 nm was 90% or more)”. Also, the Storage stability result in data set [3] was “B”. Also, in data set [4], the “maximum absorption wavelength (λmax)” value is reported as 566 nm, the “molar absorption coefficient (ε)” value is reported as 91,500 and the “Abs value at 450 nm when normalized” value turned out to be 0.0116. In addition, the Heat resistance entry in data set [5] is on record as “A (ΔEab value was less than 6)”.

Regarding `CC1CC(C(C)(C)C)C(OC(=O)c2c(-c3ccccc3)c(C=C3N=C(NC(=O)C(C)(C)C)C(C#N)=C3c3ccccc3)[n]([Zn][OH])c2NC(=O)c2c(F)c(F)c(C(=O)O)c(F)c2F)C(C(C)(C)C)C1` (stereo not shown) [Ib-69], the Light-fastness result in data set [1] is recorded as “A (ΔEab value was less than 6)”. Moreover, in data set [2], the “Transmittance at 450 nm” value is reported as “A (Transmittance at 450 nm was 90% or more)”. Further, in data set [3], the Storage stability result is reported as “A”. Moreover, in data set [4], the “maximum absorption wavelength (λmax)” value was 557 nm, the “molar absorption coefficient (ε)” value is recorded as 99,200 and the “Abs value at 450 nm when normalized” value is given as 0.0111. Moreover, the Heat resistance result in data set [5] is “A (ΔEab value was less than 6)”.

`CC1CC(C(C)(C)C)C(OC(=O)C2=C(c3ccccc3)C3=Cc4c(-c5ccccc5)c(C(=O)OC5C(C(C)(C)C)CC(C)CC5C(C)(C)C)c(NC(=O)c5c(F)c(F)c(C(=O)O)c(F)c5F)[n]4[Zn-]([OH])[N+]3=C2NC(=O)c2c(F)c(F)c(C(=O)O)c(F)c2F)C(C(C)(C)C)C1` (stereo not shown) [IIb-38]: the Light-fastness result in data set [1] is listed as “A (ΔEab value was less than 6)”. Moreover, the “Transmittance at 450 nm” value in data set [2] was “A (Transmittance at 450 nm was 90% or more)”. Moreover, the Storage stability entry in data set [3] is listed as “A”. In addition, in data set [4], the “maximum absorption wavelength (λmax)” value is 561 nm, the “molar absorption coefficient (ε)” value is listed as 105,900 and the “Abs value at 450 nm when normalized” value turned out to be 0.0099. In addition, the Heat resistance entry in data set [5] was “A (ΔEab value was less than 6)”.

Turning to `CC1CC(C(C)(C)C)C(OC(=O)c2c(-c3ccccc3)c3[n](c2NC(=O)c2c(F)c(F)c(F)c(F)c2F)[Zn-]([OH])[N+]2=C(NC(=O)C(C)Sc4cc(C(=O)O)cc(C(=O)O)c4)C(C#N)=C(c4ccccc4)C2=C3)C(C(C)(C)C)C1` (stereo not shown) [Ib-75], the Light-fastness entry in data set [1] is listed as “A (ΔEab value was less than 6)”. Also, the “Transmittance at 450 nm” value in data set [2] is “A (Transmittance at 450 nm was 90% or more)”. The Storage stability result in data set [3] is “A”. Also, in data set [4], the “maximum absorption wavelength (λmax)” value was 564 nm, the “molar absorption coefficient (ε)” value is listed as 106,400 and the “Abs value at 450 nm when normalized” value worked out at 0.0099. The Heat resistance result in data set [5] was “A (ΔEab value was less than 6)”.
